We go through 63 compounds from a melting point compilation (Tetko et al.; mined from patent text by program, amines drawn as free bases though some values may be those of a salt).

By melting point is commonly meant the temperature of the solid-liquid transition. For the compound `c1ccc(N(c2ccccc2)c2ccc(-c3ccc(-c4ccnc(Nc5ccc6ccccc6c5)n4)cc3)cc2)cc1`, the melting point was > 300 °C.

In the case of `N#Cc1ccc(NC(=O)c2cccc(OCc3cccc(F)c3F)c2)cc1`, the melting point lay in the range of 149 to 150 °C.

Consider `CS(=O)(=O)Nc1cccc(Nc2nc(NCC3CCCCN3)c3nc[nH]c3n2)c1` (stereo not drawn), for which the melting point lay within 147 to 150 °C.

`O=C(O)c1cccc(CNC(=O)C2Cc3ccccc3N2S(=O)(=O)c2ccc(-c3cccc(C(F)(F)F)c3)cc2)c1` (stereo not drawn): the melting point is 96 °C.

As to `COc1cc(N)c2nccc(C=Cc3cccc(C(F)(F)F)c3)c2c1`, the melting point lay within 124 to 126 °C.

Compound `CCOc1cc2ncc(C#N)c(Nc3ccc(Sc4ccccc4)c(Cl)c3)c2cc1OCC` registered a melting point of 88 to 94 °C.

On to `COc1ccccc1Cc1c(N)nc(SCCCN2CCN(C(C)=O)CC2)nc1N`, for which the melting point lay in the range of 208 to 209 °C.

With `CC1(Cl)C(=O)N(c2cc(Cl)cc(Cl)c2)N=C1Cl` (stereo not drawn), the melting point is 77 °C.

For the compound `CC1(C)OC(=O)Nc2ccc(-c3cccc([N+](=O)[O-])c3)cc21`, the melting point was in the range of 244 to 245 °C.

The compound `CCC1CC(=O)N(Cc2ccc(NS(C)(=O)=O)cc2)N=C1c1ccc(OC)c(OC)c1` (stereo not drawn) had a melting point of 81 °C.

Compound `COC(=O)c1ccc(CCc2nc(NC(C)=O)sc2Cc2ccc(S(C)(=O)=O)cc2)cc1` yielded a melting point of 209 to 210 °C.

In the case of `CN1C(=O)c2ccccc2CC12c1ccccc1C(=O)N2C` (stereo not drawn), the melting point was 202 to 203 °C.

With `c1ccc2c(c1)CCc1cccnc1C2C1CCNCC1` (stereo not drawn), the melting point lay within 111 to 114 °C.

With `CCCc1ccc(O)c2c(=O)cc(-c3nnn[nH]3)oc12`, the melting point lay in the range of 242 to 245 °C.

As to `CC1(C)CCC(C)(C)c2cc(C(=O)c3ccc(C(O)=NO)cc3)c(OCc3ccc(Br)cc3)cc21`, the melting point is 221 to 224 °C.

The compound `CC1Oc2cc(Cl)ccc2/C1=N\NC(=O)Nc1ccc(C(F)(F)F)cc1` (stereo not drawn) came in with a melting point of 205 to 207 °C.

On to `O=C(O)C1C2CCC(=O)C21` (stereo not drawn), for which the melting point was in the range of 110 to 115 °C.

On to `O=C1CCC(N2C(=O)c3cccc(NCc4cccc(Cl)c4)c3C2=O)C(=O)N1` (stereo not drawn), for which the melting point is 207 to 209 °C.

With `O=C(NCc1cccnc1)[NH+]([O-])c1cccc2ccccc12` (stereo not drawn), the melting point worked out at 188 °C.

`O=C(/C=C/c1ccc(NC(=O)Cc2cccc3ccccc23)cc1)NO` gave a melting point of 222 to 224 °C.

`COc1ccc(CN2c3ncccc3NC(=O)c3cccnc32)cc1` returned a melting point of 209 to 210 °C.

In the case of `CCc1nc2c(cnn2CC)c(NC2CCOCC2)c1CNC(=O)c1cccc(C(=O)NCc2ccc(C)c(-c3cccc(CN4CCN(C)CC4)c3)c2)c1`, the melting point lay within 121 to 124 °C.

Take `CCCNc1nc(N)n[nH]1`: the melting point was 148 to 149 °C.

As for `CC(C)(C)OC(=O)N[C@H]1CCN(c2nc3c(cc2F)c(=O)[nH]c(=O)n3C2CC2)C1`, the melting point is 220 to 222 °C.

`Fc1ccc(N2CCN(CCCOc3ccccc3-c3nnco3)CC2)cc1`: the melting point was in the range of 102 to 103 °C.

The compound `Cc1ccc2cccc(OCc3c(C)ccc(N)c3C)c2n1` returned a melting point of 204 to 205 °C.

`CCN(CC)C(=O)c1cn(-c2cccc(Cl)c2)cn1` registered a melting point of 105 °C.

Take `COc1c(N2CC(C)[C@@](N)(CF)C2)c(F)cc2c(=O)c(C(=O)O)cn([C@@H]3C[C@@H]3F)c12` (stereo partly drawn): the melting point was 167 to 169 °C.

In the case of `CCO/C=C/C(=O)Nc1cccc(Cl)c1OC`, the melting point fell in the range of 98 to 99 °C.

For the compound `CC(C)(C)OC(=O)C(C#N)=C(NCCCN1CCCCCC1=O)Nc1cc(C(F)(F)F)cc(C(F)(F)F)c1`, the melting point lay in the range of 167 to 168 °C.

The compound `CC1SCN(CCCCN2CCN(c3nsc4ccccc34)CC2)C1=O` (stereo not drawn) registered a melting point of 113 to 115 °C.

The compound `COc1cc(Cc2cnc(N)nc2N)cc(-c2ccc(O)cc2)c1OC` showed a melting point of 233 °C.

The compound `CC(=O)Nc1cccc(-c2cncnc2)c1` displayed a melting point of 157 to 158 °C.

In turn, `Cc1nc2c(N)nc3ccccc3c2n1OCc1ccccc1[N+](=O)[O-]` showed a melting point of 215 to 217 °C.

The compound `CCOC(=O)C1Cc2cc(-c3noc4ccccc34)c(Cl)c(Cl)c2O1` (stereo not drawn) registered a melting point of 114 to 116 °C.

Compound `Cc1nnc(-c2ccnc(Nc3ccc(S(C)(=O)=O)cc3)c2)o1` had a melting point of 244 to 245 °C.

`Cc1cc(C(N)C(=O)O)ccc1O` (stereo not drawn) displayed a melting point of 205 to 207 °C.

`COc1cc(C(=O)O)ccc1Cc1cccc2ccc(CCCCC(=O)N(C)C)cc12` displayed a melting point of 125 to 127 °C.

As for `CC#Cc1cnc(OC)nc1`, the melting point lay in the range of 88 to 89.5 °C.

Turning to `O=C(O)Cc1cccc(C(=O)c2ccc(OCc3ccc4ccccc4c3)cc2)c1`, the melting point is 150 to 152 °C.

In the case of `CNCC(=O)N1c2ccccc2N(C)S(=O)(=O)c2ccccc21`, the melting point is 135 to 137 °C.

Consider `CN(C)C(=O)c1cc(-c2ccccc2)c(=O)n2c1-c1cc(Cl)ccc1CN2`, for which the melting point was 250 to 252 °C.

`COC(=O)C(Oc1ccc2c(c1)CCC2)c1ccc(OCCCOc2ccc(Cl)cc2)cc1` (stereo not drawn) returned a melting point of 60 to 62 °C.

For `COc1ccc(NC(=S)NCCO)c(C)c1`, the melting point was in the range of 171 to 174 °C.

For the compound `N#CCN(CP(=O)(Oc1ccccc1)Oc1ccccc1)N=O`, the melting point lay in the range of 76 to 78 °C.

`CCC(=O)N1N=C(c2ccc([N+](=O)[O-])c(C)c2)c2cc(Cl)ccc2C=C1C` returned a melting point of 134 to 138 °C.

In turn, `CC(C)(C)N(NC(=O)c1ccccc1)C(=O)c1cccnc1` displayed a melting point of 60 to 63 °C.

In turn, `CC(C)(C)c1ccc(C#N)cc1N` displayed a melting point of 94.5 to 95 °C.

As for `COCCc1ncc(CO)c(NCc2ccc(-c3ccccc3-c3nnnn3C(c3ccccc3)(c3ccccc3)c3ccccc3)cc2)n1`, the melting point was 118 to 120 °C.

For `O=S1(=O)N=CN(C2CC2)c2ccc(F)c(Cl)c21`, the melting point fell in the range of 260 to 263 °C.

The compound `CCOC(=O)c1cc(O[C@@H]2c3c(C)ccc(C)c3C[C@H]2O)c2nc(C)n(C)c2c1` (relative stereo) displayed a melting point of 184 °C.

`Cc1cc(OCc2cnc(-c3ccc(C(F)(F)F)nc3)nc2C2CC2)ccc1OC(C)(C)C(=O)O` displayed a melting point of 185 to 186 °C.

On to `Cc1cc(C(=O)NC2CC(C)(C)NC(C)(C)C2)c(C)o1`, for which the melting point was in the range of 116 to 118 °C.

`Cc1cccc(N(c2ccccc2)c2ccc(-c3ccc(-c4ccc(N(c5ccccc5)c5cccc(C)c5)cc4)cc3)cc2)c1` came in with a melting point of 189 to 190 °C.

The compound `COc1ccc(Cn2c(C)cc3cn[nH]c(=O)c32)cc1` returned a melting point of 212 to 213 °C.

Compound `CN(C)C(=O)CON(Cc1ccc(F)cc1)C(=O)C=C(O)C(=O)O` registered a melting point of 118 to 120 °C.

In the case of `Cn1nc(S(N)(=O)=O)c2c(F)cccc21`, the melting point was in the range of 221 to 223 °C.

As for `O=C(Cl)Sc1nnnn1-c1ccccc1`, the melting point was 112 to 114 °C.

As for `O=Cc1c(-c2cccnc2)[nH]c2ccccc12`, the melting point fell in the range of 148 to 150 °C.

As to `CCNc1ccc2c(c1)Cc1c-2[nH]c2ccccc12`, the melting point is 225 °C.

In turn, `Nc1ncnc2c1ncn2C1CCC(O)C1O` (stereo not drawn) returned a melting point of 201 to 202 °C.

Compound `CC(C)(C)N1CC(O)C1` showed a melting point of 42 to 43 °C.

Take `CCC(=O)C1(Nc2ccccc2)CCN(CCc2cccs2)CC1`: the melting point stood at 127 °C.
